Reference: ChEMBL document CHEMBL6178021, “Optimization of Tambjamines Active against Multiple Stages of Malaria Parasites” (J Med Chem, 2025)
≈ marks a conversion by molar mass, not a printed value.

Assays:
Plasmodium yoelii [1] = assay: Antimalarial activity against erythrocytic Plasmodium yoelii MRA-428 infected in CF1 mouse assessed as reduction in parasitemia at 25 mg/kg, po once daily for 4 days measured on day 5; format: functional; parameters: scale not given: the % may be the effect or the level left; conditions: time 4 day
Plasmodium yoelii [2] = assay: Antimalarial activity against erythrocytic Plasmodium yoelii MRA-428 infected in CF1 mouse assessed as cured mouse at 25 mg/kg, po once daily for 4 days measured on day 28 day; format: functional, organism-based; conditions: time 4.0 day
Plasmodium falciparum [3] = assay: Antiplasmodial activity against asexual blood-stage Plasmodium falciparum Tm90-C2B using 2% haematocrit and 0.2% parasitemia assessed as reduction in fluorescence measured after 72 hrs by Malaria SYBR Green I-based Fluorescence (MSF) assay; format: functional, organism-based
MDR1 (human) [4] = assay: Apparent permeability across apical to basolateral side in MDCK transfected with human MDR1 cells incubated for 1 hr by LC-MS analysis; conditions: dog, MDCK-MDR1
HepG2 = assay: Cytotoxicity against human HepG2 cells assessed as cell viability measured after 48 hrs by MTT assay; format: toxicity, cell-based; conditions: hepg2
in vitro [5] = conditions: mouse, liver microsomes
Plasmodium falciparum [6] = assay: microbe, parasite or virus in culture; conditions: Dd2, 72 h
Description: Antiplasmodial activity against asexual blood-stage Plasmodium falciparum Dd2 using 2% haematocrit and 0.2% parasitemia assessed as reduction in fluorescence measured after 72 hrs by Malaria SYBR Green I-based Fluorescence (MSF) assay

[7] = Solubility of the compound in potassium phosphate buffer at pH 7.4 by UV-vis spectroscopy; conditions: buffer
Plasmodium yoelii [8] = assay: Antimalarial activity against erythrocytic Plasmodium yoelii MRA-428 infected in CF1 mouse assessed as cured mouse at 50 mg/kg, po once daily for 4 days measured on day 28 day; format: functional, organism-based; conditions: time 4.0 day
Plasmodium yoelii [9] = assay: Antimalarial activity against erythrocytic Plasmodium yoelii MRA-428 infected in CF1 mouse assessed as reduction in parasitemia at 10 mg/kg, po once daily for 4 days measured on day 5; format: functional; parameters: scale not given: the % may be the effect or the level left; conditions: time 4 day
[10] = Metabolic stability in mouse liver microsomes assessed as half life measured up to 60 mins by LC/MS analysis; format: ADME, Microsome
Plasmodium falciparum [11] = assay: microbe, parasite or virus in culture; conditions: D6, 72 h
Description: Antiplasmodial activity against asexual blood-stage Plasmodium falciparum D6 using 2% haematocrit and 0.2% parasitemia assessed as reduction in fluorescence measured after 72 hrs by Malaria SYBR Green I-based Fluorescence (MSF) assay

in vitro [12] = conditions: human, liver microsomes
[13] = Metabolic stability in human liver microsomes assessed as half life measured up to 60 mins by LC/MS analysis; format: ADME, Microsome
Plasmodium yoelii [14] = assay: Antimalarial activity against erythrocytic Plasmodium yoelii MRA-428 infected in CF1 mouse assessed as reduction in parasitemia at 50 mg/kg, po once daily for 4 days measured on day 5; format: functional; parameters: scale not given: the % may be the effect or the level left; conditions: time 4 day
MDR1 (human) [15] = assay: Apparent permeability across basolateral to apical side in MDCK transfected with human MDR1 cells incubated for 1 hr by LC-MS analysis; conditions: dog, MDCK-MDR1

Structure (SMILES) | Activity (Plasmodium yoelii [1]) [%] | Activity (Plasmodium yoelii [2]) | IC50 (Plasmodium falciparum [3]) [nM] | Papp A→B at 1 h (MDR1 (human) [4]) [×10⁻⁶ cm/s] | IC50 (HepG2) [nM] | microsomal CLint at 1 h (in vitro [5]) [µL/min/mg] | IC50 (Plasmodium falciparum [6]) [nM] | solubility [7] [µM] | Activity (Plasmodium yoelii [8]) | Activity (Plasmodium yoelii [9]) [%] | half-life [10] [min] | IC50 (Plasmodium falciparum [11]) [nM] | microsomal CLint at 1 h (in vitro [12]) [µL/min/mg] | half-life [13] [min] | Activity (Plasmodium yoelii [14]) [%] | Papp B→A at 1 h (MDR1 (human) [15]) [×10⁻⁶ cm/s]
CCC1=C(C)/C(=C/NC2CCCCCCC2)N=C1c1ccc(CC)[nH]1 | 100 | Not active; None Of The Mouse Cured Out Of Four Tested | 2.98 | 0.095 | 4280 | 17.5 | 9.01 | 10 (≈ 3.4 µg/mL) | Not active; None Of The Mouse Cured Out Of Four Tested | 61.9 | > 60 | 7.39 | 33.4 | 41.4 | 100 | 
COc1ccc(Cc2ccc(C3=N/C(=C\NC4CCCCC4)C4=C3OCCO4)[nH]2)cc1 | 31.2 |  | 9.6 | 0.002 | 1550 | 16.2 | 12.6 | 16.4 (≈ 6.88 µg/mL) |  | 5.01 | > 60 | 6.08 | 18.1 | > 60 |  | 0.051
CCc1ccc(C2=N/C(=C\NC3CCCCCCC3)C(C)=C2C)[nH]1 | 97 |  | 4.28 | 0.022 | 2020 |  | 3.97 | 57.7 (≈ 18.8 µg/mL) |  |  | > 60 | 5.05 |  | > 60 | 100 | 
CCC1=C(CC)/C(=C/NC2CCCCCCC2)N=C1c1ccc(-c2ccccc2)[nH]1 |  |  | 65.5 | 0.004 | 8960 | 26.5 | 48.2 | 4.62 (≈ 1.86 µg/mL) |  | 37.4 | 52.2 | 39 | 42.1 | 32.9 |  | 0.002
C(/NC1CCCCC1)=C1/N=C(c2ccc[nH]2)C2=C1CCCC2 | 100 | Not active; None Of The Mouse Cured Out Of Four Tested | 16.6 | 0.27 |  | 58.2 | 13.2 | 294 (≈ 86.9 µg/mL) | Not active; None Of The Mouse Cured Out Of Four Tested | 88.8 | 23.8 |  | 51.9 |  | 100 | 0.092
CCN(CC)CCCC(C)Nc1ccnc2cc(Cl)ccc12 (stereo not given) |  | Not active; None Of The Mouse Cured Out Of Four Tested |  |  |  |  |  |  | Not active; None Of The Mouse Cured Out Of Four Tested |  |  |  |  |  |  | 
COc1ccc(Cc2ccc(C3=N/C(=C\NC4CCCCC4)C4=C3CCCC4)[nH]2)cc1 | 0 |  | 5.92 |  | 2020 | 9.87 | 12.2 | 25.5 (≈ 10.6 µg/mL) |  | 0 | > 60 | 9.68 | 11.2 | > 60 |  | 
CCc1ccc(C2=N/C(=C\NC3CCCCCC3)C3=C2OCCO3)[nH]1 | 67.4 |  | 3.34 | 0.042 | 1780 | 48.2 | 16.7 | 52.1 (≈ 17.8 µg/mL) |  | 34.2 | 28.7 | 7.58 | 20.6 | > 60 |  | 0.47
CCc1ccc(C2=N/C(=C\NC3CCCCC3)C(OC)=C2OC)[nH]1 | 12.1 |  | 3.96 | 0.21 | 11400 | 52.8 | 15.5 | 99.6 (≈ 32.8 µg/mL) |  | 12.3 | 26.2 | 10.3 | 16.8 | > 60 |  | 0.49
C(/NC1CCCCC1)=C1/N=C(c2ccc[nH]2)C2=C1OCCO2 | 26.7 |  | 43.9 | 0.33 | 9080 | 86.4 | 53.5 | 231 (≈ 69.2 µg/mL) |  | 7.6 | 16.1 | 48.5 | 105 | 13.1 |  | 4.4
